{"source": "BindingDB's records for patent US9624198", "about": "(Bayer Pharma Aktiengesellschaft, 2017)", "molecular_target": "T1, Alpha-2C adrenergic receptor (Homo sapiens, UniProt P18825)", "T1 sequence (P18825 whole entry)": "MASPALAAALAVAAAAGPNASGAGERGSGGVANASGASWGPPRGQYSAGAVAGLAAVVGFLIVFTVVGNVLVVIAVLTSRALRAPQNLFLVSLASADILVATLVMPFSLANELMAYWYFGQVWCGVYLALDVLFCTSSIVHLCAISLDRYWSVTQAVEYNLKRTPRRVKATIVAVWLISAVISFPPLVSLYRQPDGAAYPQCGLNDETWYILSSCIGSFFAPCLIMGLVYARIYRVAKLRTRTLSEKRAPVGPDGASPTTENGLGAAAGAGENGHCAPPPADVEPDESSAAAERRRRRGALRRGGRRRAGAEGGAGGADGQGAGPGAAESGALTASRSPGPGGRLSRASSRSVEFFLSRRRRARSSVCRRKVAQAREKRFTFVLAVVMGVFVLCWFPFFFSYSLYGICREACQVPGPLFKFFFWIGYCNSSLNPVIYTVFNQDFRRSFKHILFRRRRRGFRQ", "assay": "In Vitro Assay", "procedure": "Antagonism against the adrenoreceptor α1A was tested using a recombinant human α1A receptor CHO cell line which additionally also recombinantly expresses mtAeq (mitochondrial aequorin). Antagonism against the adrenoreceptor α2A was tested using a recombinant human α2A-Gα16 receptor fusion protein CHO cell line (PerkinElmer Life Sciences) which additionally also recombinantly expresses mtAeq. Antagonism against the adrenoreceptor α2B was tested using a recombinant human α2B receptor CHO cell line (PerkinElmer Life Sciences) which additionally also recombinantly expresses mtAeq. Antagonism against the adrenoreceptor α2C was tested using a recombinant human α2C receptor CHO cell line which additionally also recombinantly expresses a chimaric G protein (Gαqi3) and mtOb (mitochondrial obelin).The cells were cultivated at 37° C. and 5% CO2 in Dulbecco's modified Eagle's Medium/NUT mix F12 with L-glutamine which additionally contains 10% (v/v) inactivated foetal calf serum, 1 mM sodium pyruvate, 0.9 mM sodium bicarbonate, 50 U/ml penicillin, 50 μg/ml streptomycin, 2.5 μg/ml amphotericin B and 1 mg/ml Geneticin. The cells were passaged with enzyme-free Hank's-based cell dissociation buffer. All cell culture reagents used were from Invitrogen (Carlsbad, USA).", "data": [{"smiles": "O=C(c1ccc(N2CC3(COC3)C2)nc1)N1CCC(N2CCc3ccccc3C2)CC1", "note": "[US9624198, 10]", "values": [{"measurement": "IC50", "result": 11, "unit": "nM"}]}]}
